Experimental data from patent publication US5118681A (priority 1989, dated 1992).
In brackets after ≈: the same amount, converted by molar mass. Where two headings read alike, the source gives them in different places.

What was measured:
ps.fl bacteria = test: Speed of Kill (SOK) test, 4 h, synthetic hard water (Table 3); assay type: cell-based; details: Pseudomonas fluorescens, read-out: SOK (concentration at which compound killed >99.999% of the cells)
Description: The Speed of Kill (SOK) Test measures the loss of cell viability in an aqueous suspension of bacterial cells during a four hour period when these cells are contacted with a defined concentration of the test compound in synthetic hard water (SHW). A stock solution or dispersion of the test compound, typically at a concentration of 1%, is made in a 5:3:2 solvent solution of acetone, methanol, and water. The SHW is made by taking one liter of sterile deionized water and adding the following solutions to it:
1. 2 ml of a solution of 31.74 g of MgCl2 and 73.99 g of CaCl2 in 1000 ml of sterile distilled water which has been heat sterillized.
2. 4 ml of a solution of 56.03 g of NaHCO3 in 1000 ml of water which has been filter sterillized.
The combined solution is then filter sterilized to yield the SHW. A volume of the stock solution is dispensed into the SHW to give an initial test compound starting concentration of 500 ppm.
(§1) When the test is ready to be run, each vessel in the dilution series, except the first vessel, contains an equal volume of the SHW mixture with the test compound. The first vessel contains twice the volume of SHW with the starting concentration of test compound. One half of the SHW from the first vessel is transferred to the second vessel. After being mixed, one half the resulting volume is removed from the second vessel and transferred to the third vessel. The entire cycle is repeated sufficiently to give a series of concentrations amounting to 500, 250, 125, 63, 31, 16, 8, and 4 ppm, respectively.
Each vessel is then inoculated with a cell suspension of the ps.fl bacteria. The bacteria were grown on a 1% agar slant tube and incubated for 18-24 hours at 30° C. Thereafter, the tube is washed with four ml of sterile water. This was is diluted to a density of 60 to 80 Nephlolmeter Turbidity Units (NTU). To 100 ml of the SHW containing the various concentrations of the test compound is added 0.75 ml of inoculum from the 60-80 NTU wash with good mixing. After 4 hours from the time of addition at 30° C., 5 μl of solution is transferred to 100 μl of a broth solution in order to recover any living cells. This mixture is incubated for 24 hours at 30° C. before noting the concentration in ppm at which each compound killed >99.999% of the cells in the SHW solution.

[1] = tested on: Pseudomonas fluorescens (Ps.fl); test: MIC, broth two-fold serial dilution (Table 3), Ps.fl; assay type: cell-based; details: read-out: MIC Ps.fl
Description: (§2) A minimum inhibitory concentration (MIC) value is obtained using a broth, two-fold serial dilution test performed as follows: A stock solution or dispersion of the test compound, typically at a concentration of 1%, is made in a 5:3:2 solvent solution of acetone, methanol, and water. A volume of the stock solution is dispensed into culture media to give an initial starting test concentration of 500 ppm compound.
as §1, with “done,” for “run,”, “compound free broth.” for “the SHW mixture with the test compound.”, “broth” for “SHW”
(§3) Each vessel is then inoculated with a cell suspension of the appropriate test organism. Bacteria are grown in broth and fungi on agar slants for a time and at a temperature appropriate to the species being tested. At the end of the growth period, the broth is vortexed to disperse the cells. In the case of fungi, the spores are harvested by pipetting water onto the slant and dislodging the spores with a sterile loop. The cell/spore suspension is standardized by controlling incubation time, temperature, and the volume of the diluent. The suspension is then used to inoculate the vessels containing the broth compound. The vessels are then incubated at the appropriate temperature. After the incubation, the vessels are examined for growth/no growth. The minimum inhibitory concentration (MIC) is defined as the lowest concentration of compound that results in complete inhibition of growth of the test organism.
Pseudomonas fluorescens (Ps.fl), gram negative

[2] = tested on: Pseudomonas aerugenosa (Ps.ae); test: MIC, broth two-fold serial dilution (Table 3), Ps.ae; assay type: cell-based; details: read-out: MIC Ps.ae
Description: as §2
as §1, with “done,” for “run,”, “compound free broth.” for “the SHW mixture with the test compound.”, “broth” for “SHW”
as §3
Pseudomonas aerugenosa (Ps.ae), gram negative

Escherichia coli (E.c) = test: MIC, broth two-fold serial dilution (Table 3), E.c; assay type: cell-based; details: read-out: MIC E.c
Description: as §2
as §1, with “done,” for “run,”, “compound free broth.” for “the SHW mixture with the test compound.”, “broth” for “SHW”
as §3
Escherichia coli (E.c), gram negative

[3] = tested on: Staphylococcus aureus (S.a); test: MIC, broth two-fold serial dilution (Table 3), S.a; assay type: cell-based; details: read-out: MIC S.a
Description: as §2
as §1, with “done,” for “run,”, “compound free broth.” for “the SHW mixture with the test compound.”, “broth” for “SHW”
as §3
Staphylococcus aureus (S.a), gram positive

Aspergillus niger (A.n) = test: MIC, broth two-fold serial dilution (Table 3), A.n; assay type: cell-based; details: read-out: MIC A.n
Description: as §2
as §1, with “done,” for “run,”, “compound free broth.” for “the SHW mixture with the test compound.”, “broth” for “SHW”
as §3

[4] = tested on: Aureobasidium pullulans (A.p); test: MIC, broth two-fold serial dilution (Table 3), A.p; assay type: cell-based; details: read-out: MIC A.p
Description: as §2
as §1, with “done,” for “run,”, “compound free broth.” for “the SHW mixture with the test compound.”, “broth” for “SHW”
as §3
Aureobasidium pullulans (A.p)

A.n = test: Minimum Inhibitory Concentration Test, alternate (Table 4), A.n; assay type: cell-based, Aspergillus niger; details: TSB, 72 hours; for MIC: Aspergillus niger
How it was run: (§4)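 Compound in acetone was diluted into TSB and serially diluted 1:1 from 250 ppm down to 0.8 ppm, in duplicate. Plates were inoculated with diluted 24 h culture and incubated 3 days at 30° C; MIC recorded as lowest concentration with no growth.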

Pseudomonas fluorescens [5] = test: Minimum Inhibitory Concentration Test, alternate (Table 4), Ps.fl; assay type: cell-based; details: TSB, 72 hours, 30° C; for MIC: Pseudomonas fluorescens
How it was run: as §4

[6] = tested on: Pseudoperonospora cubensis; test: whole plant or invertebrate; assay type: in vivo
Piricularia oryzae = test: whole plant or invertebrate; assay type: in vivo
Phytophthora infestans = test: whole plant or invertebrate; assay type: in vivo; details: for pest or weed control at 200 ppm / pest or weed control at 300 ppm / pest or weed control at 100 ppm: Phytophthora infestans, in Solanum lycopersicum, 96 h, read-out: % control TLB
[7] = tested on: Erysiphe graminis (f. sp. tritici); test: whole plant or invertebrate; assay type: in vivo
[8] = tested on: Puccinia graminis (f. sp. tritici Race 15B-2); test: whole plant or invertebrate; assay type: in vivo; details: 336 h, read-out: % control WSR
[9] = tested on: Pellicularia filamentosa (f. sp. sasiki); test: whole plant or invertebrate; assay type: in vivo
[10] = tested on: Puccinia recondita (f. sp. tritici Races PKB and PLD); test: whole plant or invertebrate; assay type: in vivo
Pseudomonas fluorescens [11] = test: Speed of Kill Test, alternate, 24 h, synthetic hard water (Table 4); assay type: cell-based; details: Ps.fl in synthetic hard water, 100 ppm
[12] = Table 3, Ps.fl in synthetic hard water, 4 hours, 30° C
[13] = Table 3, broth two-fold serial dilution
[14] = Pseudoperonospora cubensis, in Cucumis sativus, 168 h, read-out: % control CDM
[15] = Pyricularia oryzae, read-out: % control RB
[16] = Blumeria graminis, read-out: % control WPM
[17] = Puccinia recondita, 240 h, read-out: % control WLR

Row | Compound | MBC (ps.fl bacteria; [12]) | MIC [1, 13] | MIC [2] | MIC (Escherichia coli (E.c); [13]) | MIC [3, 13] | MIC (Aspergillus niger (A.n)) | MIC [4, 13] | MIC (A.n) | MIC (Pseudomonas fluorescens [5]) | pest or weed control at 200 ppm [6, 14] | pest or weed control at 200 ppm (Piricularia oryzae; [15]) | pest or weed control at 300 ppm [7, 16] | further results
1 | CCCCCCCCNC(=O)/C=C\SC(C(C)=O)C(C)=O [Example 1, N-n-octyl-cis-3-[3-(2,4-pentanedionyl)thio]acrylamide] | > 500 µg/mL | > 500 µg/mL | < 4 µg/mL | > 500 µg/mL | < 4 µg/mL | 8 µg/mL (≈ 25.5 µM) | < 4 µg/mL | > 500 µg/mL | > 500 µg/mL | 100% | 98% | 25% | pest or weed control at 200 ppm (Phytophthora infestans): 100%; pest or weed control at 100 ppm [8]: 50%
2 | CCCCCCCCNC(=O)/C(Cl)=C(/Cl)SC(C(C)=O)C(C)=O [Example 2, N-n-octyl-2,3-dichloro-cis-3-[3-(2,4-pentanedionyl)thio]acrylamide] | > 500 µg/mL | > 500 µg/mL | < 4 µg/mL | > 500 µg/mL | < 4 µg/mL | 8 µg/mL (≈ 20.9 µM) | < 4 µg/mL | > 500 µg/mL | > 500 µg/mL |  |  | 78% | pest or weed control at 300 ppm [6, 14]: 85%; pest or weed control at 300 ppm (Piricularia oryzae; [15]): 0%; pest or weed control at 300 ppm ([9]; 120 h, read-out: % control RSB): 0%; pest or weed control at 300 ppm (Phytophthora infestans): 10%; pest or weed control at 150 ppm [8]: 85%
3 | CC(=O)C(S/C(Cl)=C(/Cl)C(=O)NC1CCCCC1)C(C)=O [Example 6, N-cyclohexyl-2,3-dichloro-cis-3-[3-(2,4-pentanedionyl)thio]acrylamide] | > 500 µg/mL | > 500 µg/mL | 32 µg/mL (≈ 90.8 µM) | 500 µg/mL (≈ 1420 µM) | 16 µg/mL (≈ 45.4 µM) | 125 µg/mL (≈ 355 µM) | < 4 µg/mL | > 500 µg/mL | > 500 µg/mL | 85% | 70% | 0% | pest or weed control at 200 ppm ([9]; 120 h, read-out: % control RSB): 0%; pest or weed control at 300 ppm (Phytophthora infestans): 0%; pest or weed control at 300 ppm [8]: 0%
4 | CCCCCCCCNC(=O)/C=C\SC(C(=O)NCCCCCCCC)C(=O)OCC (stereo not drawn) [Example 18, N-n-octyl-cis-3-[2-(ethyl-N-n-octylmalonamido)thio]acrylamide] |  |  | > 500 µg/mL |  |  | < 4 µg/mL |  | > 500 µg/mL | > 500 µg/mL | 97% | 25% |  | MBC (ps.fl bacteria; 4 h): 16 µg/mL (≈ 35 µM); MIC [1]: < 4 µg/mL; MIC (Escherichia coli (E.c)): 250 µg/mL (≈ 547 µM); MIC [3]: 8 µg/mL (≈ 17.5 µM); MIC [4]: < 4 µg/mL; pest or weed control at 300 ppm ([9]; 120 h, read-out: % control RSB): 90%; pest or weed control at 200 ppm (Phytophthora infestans): 92%; pest or weed control at 200 ppm [7, 16]: 0%; pest or weed control at 200 ppm [10, 17]: 74%
5 | CCCCCCCCNC(=O)/C=C\SC(C(=O)Nc1cc(C)ccc1Cl)C(=O)OCC (stereo not drawn) [Example 42, N-n-octyl-cis-3-{2-[ethyl-N-(2-chloro-5-methylphenyl)malonamido]thio}acrylamide] | 125 µg/mL (≈ 266 µM) | 8 µg/mL (≈ 17.1 µM) | > 500 µg/mL | 500 µg/mL (≈ 1070 µM) | 8 µg/mL (≈ 17.1 µM) | < 4 µg/mL | 16 µg/mL (≈ 34.1 µM) |  |  |  |  |  | pest or weed control at 100 ppm (Phytophthora infestans): 91%
6 | CCCCCCCCNC(=O)/C=C\SC(C(=O)NCc1cccnc1)C(=O)OCC (stereo not drawn) [Example 49, N-n-octyl-cis-3-{2-[ethyl-N-((3-pyridyl)methyl)malonamido]thio}acrylamide] | > 500 µg/mL | > 500 µg/mL | < 4 µg/mL | > 500 µg/mL | < 4 µg/mL | < 4 µg/mL | < 4 µg/mL |  |  |  |  |  | pest or weed control at 100 ppm [6, 14]: 85%; pest or weed control at 100 ppm (Piricularia oryzae; [15]): 0%; pest or weed control at 100 ppm ([9]; 120 h, read-out: % control RSB): 0%; pest or weed control at 100 ppm (Phytophthora infestans): 90%; pest or weed control at 100 ppm [7, 16]: 50%; pest or weed control at 100 ppm [10, 17]: 0%
7 | CCCCCCCCNC(=O)/C=C\SC(C(=O)OCC)C(=O)c1ccccc1 (stereo not drawn) [Example 69, N-n-octyl-cis-3-[2-(ethoxy-3-phenyl-3-oxopropanoyl)thio]acrylamide] |  |  | 32 µg/mL (≈ 78.9 µM) |  |  | 125 µg/mL (≈ 308 µM) |  |  |  |  |  |  | MBC (ps.fl bacteria; 4 h): > 500 µg/mL; MIC [1]: > 500 µg/mL; MIC (Escherichia coli (E.c)): 500 µg/mL (≈ 1230 µM); MIC [3]: 16 µg/mL (≈ 39.5 µM); MIC [4]: < 4 µg/mL
8 | N-n-octyl-cis-3-[2-(N-benzyl-N'-n-octylmalonodiamido)thio]acrylamide [Example 61] |  |  |  |  |  |  |  |  |  |  |  |  | SOK (Pseudomonas fluorescens [11]): > 100 ppm; MIC A.n (A.n): > 250 ppm; MIC Ps.fl (Pseudomonas fluorescens [5]): > 250 ppm; % control CDM ([6]; in vivo): 99%; % control RB (Piricularia oryzae; in vivo): 0%; % control RSB ([9]; in vivo): 0%; % control TLB (Phytophthora infestans; 100 ppm application rate): 0%; % control WPM ([7]; in vivo): 0%; % control WLR ([10]; in vivo): 0%
